Results reported in patent USRE37410E, “Controlled local delivery of chemotherapeutic agents for treating solid tumors” (priority 1999, dated 2001).
Read-outs that look alike come from different tables or passages of the source.

Legend:
[1] = Intracerebral distribution of paclitaxel from polymer implant; type: in vivo, rat; conditions: for time course of paclitaxel brain concentration: 30 days after implant
Procedure: Animals. Male Fischer 344 rats weighing 200-225 g were obtained from Harlan Sprague-Dawley, Inc. (Indianapolis, Ind.), kept in standard animal facilities with 4 rats/cage, and given free access to Certified Rodent Chow No. 5002 (Ralston Purina Co., St. Louis, Mo.) and to Baltimore city water.
Preparation of the paclitaxel loaded polymer. Polymer discs containing labeled paclitaxel were prepared as above, except that a small amount of ^3 H-labeled paclitaxel (specific activity, 19.3 Ci/mmol; National Cancer Institute) in toluene was added to the initial solution of polymer and paclitaxel in methylene chloride. The polymer-paclitaxel mixture was then dried in a vacuum desiccator and pressed into discs using a table vise calibrated to form a pellet.
Paclitaxel-polymer implantation. The procedure for polymer implantation in the rat has been described by Tamargo, R. J., et al. (Cancer Res. 53:329-333 (1993)), the teachings of which are incorporated herein by reference. Briefly, the heads of anesthetized rats were shaved and prepared aseptically. The skull was exposed with a midline incision, and a 3-mm burr hole was drilled through the skull 5 mm posterior and 3 mm lateral to the bregma. The dura was incised with a microsurgical knife (Edward Weck and Co., Inc., Research Triangle Park, N.C.), and the polymer disc was inserted into the brain parenchyma. The wound was irrigated and closed with surgical clips (Clay Adams, Parsippany, N.J.).
Protocol for intracerebral drug distribution. Twelve rats were given implants of 10-mg discs containing 40% paclitaxel by weight and 0.60 μCi/mg disc weight. At 3, 9, 17, and 30 days postimplantation, groups of 3 rats each were euthanized. The skull was opened and the brain exposed. The polymer disc was removed from the brain in situ. The brain was then removed from the skull and snap frozen in heptane over dry ice. The brain was sectioned in the midline into implant and contralateral hemispheres. Each hemisphere was sectioned coronally at 2-mm intervals by using a tissue blade grid consisting of individual tissue blades arranged in parallel separated by 2-mm metal spacers. Each section was weighed, dissolved in 15 ml Solvable homogenizing solution (New England Nuclear Dupont, Boston, Mass.), and combined with 15 ml Atomlight™ scintillation mixture (New England Nuclear Dupont). The brain samples were counted on a Beckman liquid scintillation counter. Raw counts were corrected for quenching and converted to dpm using a linear regression based on a series of quenched standards.
To convert dpm/mg tissue to paclitaxel concentration, a second experiment was performed. Four rats were given implants of 40% loaded polymer discs with 0.39 μCi/mg. One rat each was sacrificed at 3, 9, 17, and 30 days. The brain was removed and frozen as above. A 2-mm coronal section was taken through the site of the polymer implant. The section was minced and extracted with ethanol. The ethanol fraction was divided in two. […] The Rf value for the paclitaxel was determined and each lane cut into 4 sections: A. origin; B, origin to paclitaxel spot; C. paclitaxel spot; and D. paclitaxel spot to solvent front. The chromatography strips were combined with Atomlight™ mixture and counted in a liquid scintillation counter. […] To determine the efficiency of extraction, the remaining half of the original extract was combined with mixture and counted, and the residual brain tissue was homogenized and counted as above. […]

[2] = human, in vivo; cited from earlier work
[3] = maintenance of sufficient systemic levels; cited from earlier work
[4] = tested on: F98; type: cell-based; conditions: Rattus norvegicus, continuous 6-8 days exposure, read-out: LD90 (the source's name)
[5] = tested on: ovarian, breast, lung, and prostatic cancer and melanoma; conditions: cited from earlier work
[6] = tested on: intracranial gliomas; conditions: i.p.; cited from earlier work
[7] = in vivo; cited from earlier work
[8] = tested on: 9L; assay: Intracranial local drug delivery by polymer implant in rat glioma model, median survival (Table 1 summary); conditions: in vivo
[9] = tested on: U373; assay: cells; conditions: Homo sapiens, U373 MG, read-out: ID90
[10] = tested on: 9L; type: cell-based; conditions: Rattus norvegicus, read-out: LD90 (the source's name)
[11] = tested on: 9L, F98, U373, H80, U87, D324 cell lines; assay: In vitro efficacy of paclitaxel on several cell lines (clonogenic assay); type: cell-based, rat and human
[12] = cell-culture medium; cited from earlier work

Compound: CC(=O)O[C@H]1C(=O)[C@@]2(C)[C@H]([C@H](OC(=O)c3ccccc3)[C@]3(O)C[C@H](OC(=O)[C@H](O)[C@@H](NC(=O)c4ccccc4)c4ccccc4)C(C)=C1C3(C)C)[C@]1(OC(C)=O)CO[C@@H]1C[C@@H]2O [paclitaxel]
- time course of paclitaxel brain concentration [1]: still constant or rising throughout the rat brain 30 days after implant
- time course of paclitaxel brain concentration ([1]; listed as Paclitaxel): increased slightly during the 30 days
- duration of elevated paclitaxel concentration in brain ([1]; after implantation in the rat brain): at least one month
- raw counts tissue bound ([1]; brain, each time point): 31±3%
- raw counts representing parent drug ([1]; brain, each time point, ± standard error of the mean): approximately 56±3%
- clearance [2]: extensive non-renal clearance
- systemic toxicity [3]: severe, in some cases "life-threatening" toxicity
- IC90 [4]: 25 nM
- concentrations cytotoxic in vitro [5]: nanomolecular concentrations
- increased survival from systemic intraperitoneal injections [6]: no increased survival
- penetration of intact blood-brain barrier [7]: penetrates the intact blood-brain barrier poorly, if at all
- % increase survival [8]: 215%
- Median survival in days, Rx group [8]: 61.5
- IC90 ([9]; 1 h): 280 nM
- IC90 ([9]; 24 h): 29 nM
- IC90 [9]: 7.2 nM
- IC90 ([10]; 1 h, 1 h exposure): 890 nM
- IC90 ([10]; 24 h, 24 h exposure): 100 nM
- factor of potency increase in vitro ([11]; exposure for more than 24 h): two to four
- concentration at which log cell kill occurred ([11]; rat and human brain-tumor cell lines): nanomolecular concentrations
- amount required for log cell kill in rat lines relative to human lines ([11]; rat lines (9L, F98) vs human lines (U87, U373, H80), 6-8 days): four to ten
- hydrolysis to inactive compounds [12]: less than 10%
